Legend:
HT29 cells = assay: Assay I of bioactive molecules on cell viability in vitro (CCK8); format: cell-based; conditions: Homo sapiens, HT-29, CCK8; read-out: EC50(nM), killing of HT29 cells
Description: (§1) Tumor cells were first cultured; the bioactive molecules of the present disclosure were co-cultured with tumor cells, and then CCK8 reagent (Dojindo Laboratories (Shanghai), Cat: CK04, Lot: JJ744) was added, and the activity of dehydrogenase in mitochondria was detected by reading (detection wavelength 450 nm) on a microplate reader (manufacturer: Molecular Devices, model: SpectraMax M2), to evaluate the inhibitory effect of bioactive molecules on cell proliferation.
(§2) In vitro cell viability assay method: bioactive molecules (12 concentration gradients) were diluted with corresponding assay medium (containing 2% FBS). The tumor cells were digested by conventional methods using trypsin, and cells in tube were collected and counted, then resuspended in the corresponding assay media (containing 2% FBS). The diluted bioactive molecules were added to a 96-well plate, followed by the cells. Then, 20 μL of CCK8 reagent was added to each well, and the reaction was carried out for 4 h, then the plate was read on a microplate reader (detection wavelength was 450 nm). The experimental results are shown in Tables 6.1, 6.2, 6.3, 6.4, and 6.5.

NCl-H358 cells = assay: as above; format: cell-based; conditions: Homo sapiens, read-out: EC50(nM), killing of NCl-H358 cells
Description: as §1, §2

Row | SMILES | EC50 (HT29 cells) | EC50 (NCl-H358 cells)
1 | CC[C@@]1(O)C(=O)OCc2c1cc1n(c2=O)Cc2c-1nc1cc3c(cc1c2-c1ccc(N)cc1)OCO3 [Example A1.4, (S)-14-(4-aminophenyl)-7-ethyl-7-hydroxy-10,13-dihydro-11H-[1,3]dioxolo[4,5-g]pyrano[3′,4′:6,7]indolizino[1,2-b]quinolin-8,11(7H)-dione] | 29.4 nM | 29.9 nM
2 | CC[C@@]1(O)C(=O)OCc2c1cc1n(c2=O)Cc2c-1nc1cc3c(cc1c2CCN(C(=O)CO)C(C)C)OCO3 [Example A1.8, (S)—N-(2-(7-ethyl-7-hydroxy-8,11-dioxo-7,8,11,13-tetrahydro-10H-[1,3]dioxolo[4,5-g]pyrano[3′,4′:6,7]indolizino[1,2-b]quinolin-14-yl)ethyl)-2-hydroxy-N-isopropylacetamide] | 367 nM | 296 nM
3 | CC[C@@]1(O)C(=O)OCc2c1cc1n(c2=O)Cc2c-1nc1cc3c(cc1c2CCNC(C)C)OCO3 [Example A1.8D, (S) 7-ethyl-7-hydroxy-14-(2-(isopropylamine)ethyl)-10,13-dihydro-11H-[1,3]dioxolo[4,5-g]pyrano[3′,4′:6,7]indolizino[1,2-b]quinolin-8,11(7H)-dione] | – | 7.92 nM
4 | CC[C@@]1(O)C(=O)OCc2c1cc1n(c2=O)Cc2c-1nc1cc(F)c(C)cc1c2CCCO [Example A1.10, (S)-4-ethyl-8-fluoro-4-hydroxy-11-(3-hydroxypropyl)-9-methyl-1,12-dihydro-14H-pyrano[3′,4′:6,7]indolizino[1,2-b]quinolin-3,14(4H)-dione] | 5.96 nM | 8.11 nM
5 | CC[C@@]1(O)C(=O)OCc2c1cc1n(c2=O)Cc2c-1nc1cc(F)c(C)cc1c2CCCN [Example A1.11, (S)-4-ethyl-8-fluoro-4-hydroxy-11-(3-aminopropyl)-9-methyl-1,12-dihydro-14H-pyrano[3′,4′:6,7]indolizino[1,2-b]quinolin-3,14(4H)-dione] | 284 nM | 203 nM
6 | CC[C@@]1(O)C(=O)OCc2c1cc1n(c2=O)Cc2c-1nc1cc3c(cc1c2/C=C/CN)OCO3 [Example A1.12, (S,E)-14-(3-amino-1-propylen-1-yl)-7-ethyl-7-hydroxy-10,13-dihydro-11H-[1,3]dioxolo[4,5-g]pyrano[3′,4′:6,7]indolizino[1,2-b]quinolin-8,11(7H)-dione] | 212 nM | 167 nM
7 | CC[C@@]1(O)C(=O)OCc2c1cc1n(c2=O)Cc2c-1nc1cc3c(cc1c2/C=C/CO)OCO3 [Example A1.13, (S,E)-14-(3-hydroxy-1-propylen-1-yl)-7-ethyl-7-hydroxy-10,13-dihydro-11H-[1,3]dioxolo[4,5-g]pyrano[3′,4′:6,7]indolizino[1,2-b]quinolin-8,11(7H)-dione] | 96.8 nM | 49.2 nM
8 | CC[C@@]1(O)C(=O)OCc2c1cc1n(c2=O)Cc2c-1nc1cc(F)c(C)cc1c2/C=C/CO [Example A1.14, (S,E)-4-ethyl-8-fluoro-4-hydroxy-11-(3-hydroxy-1-propylen-1-yl)-9-methyl-1,12-dihydro-14H-pyrano[3′,4′:6,7]indolizino[1,2-b]quinolin--3,14(4H)-dione] | 156 nM | 123 nM

— patent US20240108745A1, “BIOACTIVE SUBSTANCE CONJUGATE, PREPARATION METHOD THEREFOR AND USE THEREOF” (MEDILINK THERAPEUTICS (SUZHOU) CO., LTD., priority 2021, published 2024)
